Measurements published in patent publication US5525627A, “Esters of acyl carnitines with long-chain aliphatic alcohols and pharmaceutical compositions containing same having antimycotic activity” (Sigma-Tau Industrie Farmaceutiche Riunite S.p.A., priority 1992, dated 1996).

Columns and labels:
yeast-like fungi = experiment: MIC / MFC for yeast-like fungi, all strains; type: cell-based, Candida, Cryptococcus, Saccharomyces, Torulopsis; conditions: versus susceptible strains; read-out: Mean MIC values
Method: (§1) The following strains were used (the number of strains is in brackets): Candida (13); Criptococcus (2); Saccharormyces (1); Torulopsis (1).
(§2) Yeast Nitrogen Base supplemented with 0.15% asparagine and 1.0% glucose (as carbon source) was the medium utilized in the assays.
(§3) This medium was buffered with 0.165 M 2-(N-morpholino) propane sulfonic acid (MOPS), a non-chelating buffer. […]
(§4) The inoculum was prepared from an overnight broth culture (a 48-hour culture only for Cryptococcus) in Sabouraud broth and appropriately diluted to yield a final suspension containing approximately 5.0×10^6 Colony Forming Units per ml (CFU/ml), when compared to the Mc Farland's standard control (BRAY W. E., Clinical Laboratory Methods, 5th Ed. C. V. MOSBY, St. Louis, Mo, 1957).
(§5) After further diluting (1:50), a […] volume of such fungal suspensions and an equal volume of the substance solutions were distributed into each well of a microtiter plate (96 wells, round bottom). Such a procedure eventually allowed for an "in vitro" antimycotic activity assay utilizing final fungal inocula of approximately 5.0×10^4 CFU/ml.
(§6) The minimal fungicidal concentration was evaluated by spot-transferring onto Petri dishes, containing Sabouraud agar, 0.01-ml volumes of all the samples showing no visible fungal growth.

[1] = system: Saccharomyces cerevisiae (ATCC 7752); experiment: MIC for yeast and yeast-like strains; type: cell-based; conditions: ATCC7752, 48 hours, 35° C., read-out: Minimal Inhibitory Concentration (MIC)
Method: as §1, §2, §3, §4, §5

[2] = system: Torulopsis candida (D.S.); experiment: MIC for yeast and yeast-like strains; type: cell-based; conditions: Suzukiozyma candida; 48 hours, 35° C.; read-out: Minimal Inhibitory Concentration (MIC)
Method: as §1, §2, §3, §4, §5

[3] = system: Candida tropicalis (5705); experiment: MIC for yeast and yeast-like strains; type: cell-based; conditions: 48 hours, 35° C., read-out: Minimal Inhibitory Concentration (MIC)
Method: as §1, §2, §3, §4, §5

Candida krusei (ISS 1) = experiment: MIC for yeast and yeast-like strains; type: cell-based; conditions: Pichia kudriavzevii; 48 hours, 35° C.; read-out: Minimal Inhibitory Concentration (MIC)
Method: as §1, §2, §3, §4, §5

Candida albicans (562) = experiment: MIC for yeast and yeast-like strains; type: cell-based; conditions: 48 hours, 35° C., read-out: Minimal Inhibitory Concentration (MIC)
Method: as §1, §2, §3, §4, §5

[4] = system: Cryptococcus neoformans (4711); experiment: MIC for yeast and yeast-like strains; type: cell-based; conditions: 48 hours, 35° C., read-out: Minimal Inhibitory Concentration (MIC)
Method: as §1, §2, §3, §4, §5

Candida albicans (Ca 2) = experiment: MIC for yeast and yeast-like strains; type: cell-based; conditions: 48 hours, 35° C., read-out: Minimal Inhibitory Concentration (MIC)
Method: as §1, §2, §3, §4, §5

Candida albicans (A 54) = experiment: MIC for yeast and yeast-like strains; type: cell-based; conditions: 48 hours, 35° C., read-out: Minimal Inhibitory Concentration (MIC)
Method: as §1, §2, §3, §4, §5

[5] = system: Cryptococcus neoformans (ISS 1); experiment: MIC for yeast and yeast-like strains; type: cell-based; conditions: 48 hours, 35° C., read-out: Minimal Inhibitory Concentration (MIC)
Method: as §1, §2
(§7) This medium was buffered with 0.165 M 2-(N-morpholino) propane sulfonic acid (MOPS), a non-chelating buffer.
(§8) Antimicrob. Agents Cheroother. Aug. 34.8:1542-1545).
as §4, §5

Candida glabrata (ISS 1) = experiment: MIC for yeast and yeast-like strains; type: cell-based; conditions: Nakaseomyces glabratus; 48 hours, 35° C.; read-out: Minimal Inhibitory Concentration (MIC)
Method: as §1, §2, §7, §8, §4, §5

Candida albicans (ISS 1) = experiment: MIC for yeast and yeast-like strains; type: cell-based; conditions: 48 hours, 35° C., read-out: Minimal Inhibitory Concentration (MIC)
Method: as §1, §2, §7, §8, §4, §5

[6] = system: Candida parapsilosis (ISS 1); experiment: MIC for yeast and yeast-like strains; type: cell-based; conditions: Lodderomyces parapsilosis; 48 hours, 35° C.; read-out: Minimal Inhibitory Concentration (MIC)
Method: as §1, §2, §7, §8, §4, §5

[7] = system: Candida guilliermondii (ISS 1); experiment: MIC for yeast and yeast-like strains; type: cell-based; conditions: Meyerozyma guilliermondii; 48 hours, 35° C.; read-out: Minimal Inhibitory Concentration (MIC)
Method: as §1, §2, §7, §8, §4, §5

[8] = system: Candida pseudotropicalis (EC 1); experiment: MIC for yeast and yeast-like strains; type: cell-based; conditions: Kluyveromyces marxianus; 48 hours, 35° C.; read-out: Minimal Inhibitory Concentration (MIC)
Method: as §1, §2, §7, §8, §4, §5

[9] = system: Candida tropicalis (ISS 1); experiment: MIC for yeast and yeast-like strains; type: cell-based; conditions: 48 hours, 35° C., read-out: Minimal Inhibitory Concentration (MIC)
Method: as §1, §2, §7, §8, §4, §5

[10] = system: Candida albicans (ATCC 2091); experiment: MIC for yeast and yeast-like strains; type: cell-based; conditions: ATCC2091, 48 hours, 35° C., read-out: Minimal Inhibitory Concentration (MIC)
Method: as §1, §2, §7, §8, §4, §5

filamentous fungi = experiment: MIC / MFC for filamentous fungi, all strains; type: cell-based, Aspergillus, Fusarium, Mucor, Penicillium; conditions: versus susceptible strains; read-out: Mean MIC values
Excerpt: (§9) The following strains were used (the number of strains is in brackets): Aspergillus (5); Fusarium (1); Mucor (1); Penicillium (1).
(§10) The tested substances were: ST 712, ST 722, ST 982, ST 983, ST 1000, ST 1001, ST 1032, ST 1033, ST 1034, ST 1036, ST 1037, ST 1038, ST 1050, ST 1051, ST 1052, ST 1053. The assay medium was the same as the one used in the previous study. The conidia from 72-hour cultures in Sabouraud agar, collected by washing with Sabouraud medium and Tween 80 (one drop of Tween per 10 ml of medium), were utilized as inoculum (5.0×10^4 CFU/ml).
(§11) The assay was performed using the same procedure as described for yeast-like fungi.
(§12) Also the evaluation of MIC and MFC was as reported previously.

[11] = system: Aspergillus fumigatus (1/A); experiment: MIC for filamentous fungi; type: cell-based; conditions: read-out: Minimal Inhibitory Concentration (MIC)
Excerpt: as §9, §10, §11, §12

Penicillium sp. (1302) = experiment: MIC for filamentous fungi; type: cell-based; conditions: read-out: Minimal Inhibitory Concentration (MIC)
Excerpt: as §9, §10, §11, §12

[12] = system: Aspergillus fumigatus (2/A); experiment: MIC for filamentous fungi; type: cell-based; conditions: read-out: Minimal Inhibitory Concentration (MIC)
Excerpt: as §9, §10, §11, §12

Mucor mucedo (ATCC 7941) = experiment: MIC for filamentous fungi; type: cell-based; conditions: ATCC7941, read-out: Minimal Inhibitory Concentration (MIC)
Excerpt: as §9, §10, §11, §12

[13] = system: Aspergillus niger (ATCC 16404); experiment: MIC for filamentous fungi; type: cell-based; conditions: ATCC16404, read-out: Minimal Inhibitory Concentration (MIC)
Excerpt: as §9, §10, §11, §12

[14] = system: Aspergillus fumigatus (C/1); experiment: MIC for filamentous fungi; type: cell-based; conditions: read-out: Minimal Inhibitory Concentration (MIC)
Excerpt: as §9, §10, §11, §12

Fusarium sp. (ISS 1) = experiment: MIC for filamentous fungi; type: cell-based; conditions: read-out: Minimal Inhibitory Concentration (MIC)
Excerpt: as §9, §10, §11, §12

[15] = system: Aspergillus fumigatus (ATCC 28212); experiment: MIC for filamentous fungi; type: cell-based; conditions: ATCC28212, read-out: Minimal Inhibitory Concentration (MIC)
Excerpt: as §9, §10, §11, §12

Candida albicans (PG) = experiment: MIC and MFC for yeast and yeast-like strains; type: cell-based; conditions: 48 hours, 35° C., read-out: Minimal Inhibitory Concentration (MIC)
Method: as §1, §2, §7, §8, §4, §5, §6

[16] = system: Trichophyton menthagrophites (ATCC 9533); experiment: MIC for dermatophytic fungi; type: cell-based; conditions: ATCC9533, 35° C., 96 hours, read-out: Minimal Inhibitory Concentration (MIC)
Method: (§13) The following strains were used: Trichophyton menthagrophytes ATCC 9533, Trichophyton rubrum IHEM 4274, Microsporum canis IHEM 3522, Epydermophyton floccosum IHEM 3495. The tested substances were: ST 722, ST 1033, ST 1037, ST 1050, ST 1051, ST 1052,. ST 1053.
(§14) The assay was performed following the same procedure described for the yeasts, by using 7-day fungi cultures grown at 30° C. in Potato Dextrose agar, and harvested with Sabouraud broth and Tween 80 (0.5%).
(§15) After washing with Yeast Nitrogen Base, supplemented with asparagine and glucose (as carbon source), the fungal suspension was fragmented using a tissue grinder until the largest clumps or aggregates were undetectable within the grinder. This fungal suspension was then appropriately diluted in YNB to yield a concentration of 2.0×10^5 infective particles/ml (small mycelium fragments, micro-and macroaleuriospores).
(§16) Volumes of 100 μl both of the fungal suspensions and substance solutions, two-fold serially diluted in assay medium, were distributed into each well of a microtiter plate (96 wells, round bottom), which was incubated at 35° C. for 96 hours.

[17] = system: Epidermophyton floccosum (IHEM 3495); experiment: MIC for dermatophytic fungi; type: cell-based; conditions: 35° C., 96 hours, read-out: Minimal Inhibitory Concentration (MIC)
Method: as §13, §14, §15, §16

[18] = system: Trichophyton rubrum (IHEM 4274); experiment: MIC for dermatophytic fungi; type: cell-based; conditions: 35° C., 96 hours, read-out: Minimal Inhibitory Concentration (MIC)
Method: as §13, §14, §15, §16

[19] = system: Microsporum canis (IHEM 3522); experiment: MIC for dermatophytic fungi; type: cell-based; conditions: 35° C., 96 hours, read-out: Minimal Inhibitory Concentration (MIC)
Method: as §13, §14, §15, §16

dermatophytic fungi = experiment: MIC / MFC for dermatophytic fungi, all strains; type: cell-based, Trichophyton, Microsporum, Epidermophyton; conditions: versus susceptible strains
Method: as §13, §14, §15, §16

Compound	MIC (yeast-like fungi) [µg/mL]	MIC [1] [µg/mL]	MIC [3] [µg/mL]	MIC (Candida krusei (ISS 1)) [µg/mL]	MIC (Candida albicans (562)) [µg/mL]	MIC (Candida albicans (Ca 2)) [µg/mL]	MIC (filamentous fungi) [µg/mL]	MIC (Penicillium sp. (1302)) [µg/mL]	MIC (Mucor mucedo (ATCC 7941)) [µg/mL]	MIC [13] [µg/mL]	MIC (Fusarium sp. (ISS 1)) [µg/mL]	MIC [15] [µg/mL]	MIC [16] [µg/mL]	MIC [17] [µg/mL]	MIC [18] [µg/mL]	MIC [19] [µg/mL]	MIC (dermatophytic fungi) [µg/mL]	other results
CCCCCCCCCCCOC(=O)C[C@H](C[N+](C)(C)C)OC(=O)CCC(C)C [ST 1034]	3.03	3.12	3.12	1.56	1.56	1.56	5.85	3.12	12.5	6.25	3.12	6.25						MIC [2]: 3.12 µg/mL; MIC [4]: 1.56 µg/mL; MIC (Candida albicans (A 54)): 1.56 µg/mL; MIC [5]: 3.12 µg/mL; MIC (Candida glabrata (ISS 1)): 3.12 µg/mL; MIC (Candida albicans (ISS 1)): 1.56 µg/mL; MIC [6]: 6.25 µg/mL; MIC [7]: 6.25 µg/mL; MIC [8]: 6.25 µg/mL; MIC [9]: 3.12 µg/mL; MIC [10]: 1.56 µg/mL; MIC [11]: 6.25 µg/mL; MIC [12]: 3.12 µg/mL; MIC [14]: 6.25 µg/mL; MIC (Candida albicans (PG)): 3.12 µg/mL
CCCCCCCCCCCCCOC(=O)C[C@H](C[N+](C)(C)C)OC(=O)CCCCCC [ST 1050]	4.37	3.12	6.25	3.12	6.25	3.12	6.85	3.12	12.5	6.25	6.25	6.25	12.5	50	6.25	12.5	20.3	
CCCCCCCCCCCCCOC(=O)C[C@H](C[N+](C)(C)C)OC(=O)C(C)CCCC (some centres unmarked) [ST 1051]	2.8	3.12	3.12	3.12	3.12	1.56	6.87	3.12	6.25	6.25	6.25	3.12	12.5	25	6.25	12.5	14.1	
CCCCCCCCCCCCCOC(=O)C[C@H](C[N+](C)(C)C)OC(=O)CCCCC [ST 1052]	2.8	3.12	3.12	3.12	3.12	1.56	4.37	3.12	6.25	3.12	6.25	3.12	12.5	25	6.25	6.25	12.5	
CCCCCCCCCCCCCOC(=O)C[C@H](C[N+](C)(C)C)OC(=O)CCCCCCC [ST 1053]	5.62	3.12	6.25	3.12	12.5	3.12	6.24	3.12	12.5	3.12	6.25	6.25	6.25	50	6.25	6.25	14.1	
